Reference: ChEMBL document CHEMBL4725246, “Design, synthesis, and evaluation of a novel macrocyclic anti-EV71 agent” (Bioorg Med Chem, 2020)
pEC50: −log10 of the molar value.

Tests used:
Enterovirus A71 [1] = test: Antiviral activity against Enterovirus A71 SK-EV006 measured after 3 to 4 days by cell based assay; assay type: functional, organism-based; conditions: Enterovirus A
Enterovirus A71 [2] = test: Antiviral activity against Enterovirus A71 Shenzhen/120F1/09 infected in human RD cells assessed as […] measured after 72 hrs post-infection by CCK-8 assay; assay type: functional, organism-based; conditions: Enterovirus A, Shenzhen/120F1/09, RD
[3] = Stability in CD-1 mouse plasma assessed as parent compound remaining upto 120 mins by LC-MS analysis; assay type: ADME, cell-free; conditions: read-out: Stabilty

Row | pEC50 (Enterovirus A71 [1]) | remaining at 2 h [3] [%] | SMILES | pEC50 (Enterovirus A71 [2])
1 | 6.97 | – | Cc1cc(C(=O)N[C@@H](Cc2ccc(F)cc2)C(=O)N[C@H](C=O)C[C@@H]2CCCNC2=O)no1 | –
2 | – | 5.6 | Cc1cc(C(=O)N[C@H](C(=O)NC2C(=O)N[C@@H](CC3CCNC3=O)/C=C/C(=O)OC/C=C/CCOC2c2ccccc2)C(C)C)no1 (stereo partly drawn) | 5.35
